Substitutions are numbered along the chain they refer to.
Key:
[1] = biological target: T1, 6XHIS-ARV1-N98 K84A (Homo sapiens, UniProt Q9H2C2, K84A); assay: Lipid overlay far western, site-directed mutant; assay type: binding; details: compared to the ARV1-N98 protein
T1 construct: Expressing amino-terminal 98 amino acids of ARV1; made in house; host or cells: E. coli BL21 (pET-28a(+))
T1 sequence (Q9H2C2 1-98 K84A): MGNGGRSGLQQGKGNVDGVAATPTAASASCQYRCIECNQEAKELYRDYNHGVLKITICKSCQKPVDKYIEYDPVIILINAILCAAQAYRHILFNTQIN
Description: (§1) Lipid overlays were blocked in TBST-BSA (100 mM Tris–HCl buffer, pH 7.5, 150 mM NaCl, 0.5% Tween 20, 3% bovine serum albumin) for 1 h and subsequently washed eight separate times with TBST for 2 min each. Overlays were incubated with 0.5 μg/ml GST-tagged or 6XHIS-tagged proteins in 3% TBST-BSA buffer containing 0.1% Triton X-100, for 1 h at room temperature and washed as above. Overlays were incubated with either anti-GST or anti-6XHIS monoclonal antibodies at a 1:1000 dilution in TBST-BSA for 1 h at room temperature followed by eight washes in TBST. Overlays were visualized using Immobilon Western Chemiluminescent horseradish peroxidase substrate and protein–lipid interaction was detected using a GE ImageQuant LAS 3000 imager.

[2] = biological target: T2, GST-ARV1-N98 C34/C37A (Homo sapiens, UniProt Q9H2C2, C34A/C37A); assay: Liposome binding assay, site-directed mutant; details: PC:PL, sulfatide or PI(4)P liposomes
T2 construct: Expresses amino-terminal 98 amino acids of ARV1; made in house; host or cells: E. coli BL21 (pGEX-4T1)
T2 sequence (Q9H2C2 1-98 C34A/C37A): T1 sequence (Q9H2C2 1-98 K84A) with C34A, C37A, A84K
Description: Lyophilized lipids were reconstituted in chloroform at 10 mg/ml and stored in glass tubes with Teflon tops at −20 °C until use. One milliliter of 10 mg/ml stock was dried under a stream of nitrogen in a glass tube until a lipid cake/film was formed. The lipid cake was then rehydrated in BLT rehydration buffer (5 mM Tris/HCl, pH 7.4, containing 150 mM NaCl) to a concentration of 1 mg/ml. Lipid suspensions were subjected to three freeze/thaw cycles using a dry ice ethanol/[…] water bath to encapsulate the buffer and improve liposome formation. The suspension and lipid extruder were equilibrated to temperature for 10 min and liposomes were extruded using […] polycarbonate membranes (Avestin). Liposomes were made by mixing stock lipid PL (1 mg/ml) with PC (10 mg/ml).
Sulfatide liposomes were generated as previously described ([94]). All lipids were resuspended in organic solvents as per manufacturer’s instructions. Liposomes were prepared with mixing PC:PE:cholesterol:sulfatides (1:1:1:4) and subsequently dried down by lyophilization to obtain lipid films. Lipids were hydrated in 20 mM Tris–HCL, pH 6.8, containing 100 mM NaCl at a concentration of 1 mg/ml.
PI(4)P liposomes were generated as described by Knodler et al. ([95]), with some modifications. Briefly, liposomes were generated at a lipid concentration of 10 mg/ml. Liposomes contained PC (60%), PI (30%), PE (8%), and PI(4)P (2%). Lipid solution was dried down and resuspended in liposome buffer (20 mM Hepes–HCL, pH 7.4, containing 1 mM EDTA and 50 mM potassium acetate). Liposomes were formed by sonication on ice.
Liposomes were serial diluted in floatation buffer (100 mM NaCl, 2 mM EDTA, pH 5.5) to a final concentration of 0.1 mg/ml. Nine hundred microliters of liposome solution was placed in clear ultracentrifuge tubes and mixed with 100 μl of 0.01 μg/ml of protein. The liposome/protein solution was incubated at room temperature for 1 h with occasional shaking. An initial 100 μl of liposome/protein solution (liposomes) was removed and the remaining 900 μl was centrifuged at 50,000g for 20 min at 4 °C. The pellet was resuspended in 800 μl of fresh floatation buffer, centrifuged as above, and 800 μl of supernatant was removed (wash 1). This was repeated a second time and again 800 μl of supernatant was removed (wash 2). The final pellet was resuspended in 100 μl of floatation buffer plus SDS treatment buffer (pellet). Thirty microliters of each fraction was run on a 15% SDS-PAGE gel and probed with an anti-GST monoclonal antibody at a 1:1500 dilution.

[3] = biological target: T3, 6XHIS-ARV1-N98 C34/C37A (Homo sapiens, UniProt Q9H2C2, C34A/C37A); assay: Lipid overlay far western, site-directed mutant; assay type: binding; details: compared to the ARV1-N98 protein
T3 construct: Expressing amino-terminal 98 amino acids of ARV1; made in house; host or cells: E. coli BL21 (pET-28a(+))
T3 sequence (Q9H2C2 1-98 C34A/C37A): T1 sequence (Q9H2C2 1-98 K84A) with C34A, C37A, A84K
Description: as §1

[4] = biological target: T4, 6XHIS-ARV1-N98 K67A (Homo sapiens, UniProt Q9H2C2, K67A); assay: Lipid overlay far western, site-directed mutant; assay type: binding; details: compared to the ARV1-N98 protein
T4 construct: Expressing amino-terminal 98 amino acids of ARV1; made in house; host or cells: E. coli BL21 (pET-28a(+))
T4 sequence (Q9H2C2 1-98 K67A): T1 sequence (Q9H2C2 1-98 K84A) with K67A, A84K
Description: as §1

Compound	change of lipid-protein interaction [1]	liposome binding [2]	change of lipid-protein interaction [3]	change of lipid-protein interaction [4]
CCCCC/C=C\C/C=C\CCCCCCCC(=O)OC[C@H](COP(=O)(O)OCC(O)COP(=O)(O)OC[C@@H](COC(=O)CCCCCCC/C=C\C/C=C\CCCCC)OC(=O)CCCCCCC/C=C\C/C=C\CCCCC)OC(=O)CCCCCCC/C=C\C/C=C\CCCCC (stereo partly drawn) [CL, cardiolipin]	weakened	–	–	–
CCCCCCCCCCCCCCCC(=O)OC[C@H](COP(=O)(O)O)OC(=O)CCCCCCCCCCCCCCC [PA, phosphatidic acid]	–	bound	–	–
CCCCCCCC/C=C\CCCCCCCC(=O)OC[C@H](COP(=O)(O)OCC(O)CO)OC(=O)CCCCCCC/C=C\CCCCCCCC (stereo partly drawn) [PG, phosphatidylglycerol]	weakened	not	weakened or eliminated	weakened
CCCCCCCCCCCCCCCCCC(=O)OC[C@H](COP(=O)(O)OC[C@H](N)C(=O)O)OC(=O)CCCCCCCCCCCCCCCCC [PS, phosphatidylserine]	–	–	enhanced	–
CCCCCC(=O)O[C@H](COC(=O)CCCCCNC(=O)CCCC[C@@H]1SC[C@@H]2NC(=O)N[C@@H]21)COP(=O)(O)O[C@H]1[C@H](O)[C@@H](O)[C@H](OP(=O)(O)O)[C@@H](O)[C@H]1O [reference compound]	increased interactions	bound	enhanced interactions	increased interactions
phosphatidylethanolamine [PE]	–	–	–	interacted weakly
